According to US8846746B2, “Pyrazole compound and pharmaceutical use thereof” (Japan Tobacco Inc., priority 2011, dated 2014):

Molecular target: human SGLT1 (Homo sapiens (Human), UniProt P13866)
Assay: SGLT1 inhibitory activity: 14C-AMG uptake into CHO-K1 cell line stably expressing human SGLT1
Type: cell-based
Conditions: for IC50: 14C-AMG uptake; for inhibition at 0.1 µM: CHO-K1, at 0.1 uM; for inhibition at 0.3 µM: CHO-K1, at 0.3 uM
Summary of the method: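 CHO-K1 cells stably expressing human SGLT1 were pre-incubated 20 min in Na(−) buffer (pH 7.4). Test compound in Na(+) buffer with BSA was added with ¹⁴C-AMG (8 kBq) plus unlabelled AMG (2 mM in the added solution) for 1 h at 37 °C.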

[1] = CHO-K1 cells expressing human SGLT1
[2] = CHO-K1 cells stably expressing human SGLT1

Chain of human SGLT1 (P13866 whole entry): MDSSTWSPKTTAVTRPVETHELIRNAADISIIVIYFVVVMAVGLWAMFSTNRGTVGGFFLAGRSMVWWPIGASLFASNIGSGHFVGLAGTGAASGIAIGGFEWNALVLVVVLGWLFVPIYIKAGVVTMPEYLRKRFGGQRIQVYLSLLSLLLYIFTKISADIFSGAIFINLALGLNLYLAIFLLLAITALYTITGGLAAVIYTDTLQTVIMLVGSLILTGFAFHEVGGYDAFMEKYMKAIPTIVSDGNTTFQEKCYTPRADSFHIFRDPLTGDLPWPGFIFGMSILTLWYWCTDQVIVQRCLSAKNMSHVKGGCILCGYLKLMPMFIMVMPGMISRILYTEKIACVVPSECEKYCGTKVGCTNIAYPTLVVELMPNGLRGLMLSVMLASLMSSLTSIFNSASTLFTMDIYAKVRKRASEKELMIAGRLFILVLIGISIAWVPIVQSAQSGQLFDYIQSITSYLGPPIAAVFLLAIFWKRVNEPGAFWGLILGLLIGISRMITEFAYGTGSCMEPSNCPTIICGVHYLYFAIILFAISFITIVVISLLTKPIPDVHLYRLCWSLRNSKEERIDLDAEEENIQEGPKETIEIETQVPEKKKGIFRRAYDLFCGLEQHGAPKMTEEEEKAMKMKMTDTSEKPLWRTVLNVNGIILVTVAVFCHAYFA

| SMILES | IC50 [1] | IC50 [2] | also measured |
| --- | --- | --- | --- |
| O=C1C[C@H](C(=O)Nc2cc(-c3cccc(C(F)(F)F)c3)n(-c3ccccc3)n2)CN1 [Example 28] | 52 nM |  |  |
| CC(C)(C)CCOc1cccc(-c2cc(NC(=O)[C@@H]3CNC(=O)C3)nn2-c2ccccc2)c1 [Example 294] |  | 24.5 nM |  |
| CCCCc1cccc(-c2cc(NC(=O)[C@H]3CNC(=O)N3)nn2-c2ccccc2)c1 [Example 245, (R)-2-Oxoimidazolidine-4-carboxylic acid[5-(3-butylphenyl)-1-phenyl-1H-pyrazol-3-yl]amide] |  | 19 nM |  |
| CCCc1cccc(-c2cc(NC(=O)[C@@H]3CNC(=O)C3)nn2-c2cccc(C(F)(F)F)c2)c1 [Example 401] |  | 13 nM |  |
| C[C@@H](OCc1cc(Cl)cc(-c2cc(NC(=O)[C@@H]3CNC(=O)C3)nn2-c2cccc(F)c2)c1)C(F)(F)F [Example 578] |  | 8.5 nM |  |
| CCCc1cccc(-c2cc(NC(=O)[C@@H]3CNC(=O)C3)nn2-c2ccc(F)c(OCCO)c2)c1 [Example 415] |  | 13 nM |  |
| CC(C)(OCc1cc(Cl)cc(-c2cc(NC(=O)[C@H]3CNC(=O)N3)nn2-c2ccc(F)cc2)c1)C(F)(F)F [Example 600] |  | 41 nM |  |
| CC(C)Oc1cccc(-n2nc(NC(=O)[C@@H]3CNC(=O)C3)cc2-c2cccc(OC(F)(F)F)c2)c1 [Example 445] |  | 6.7 nM |  |
| CCCc1cccc(-c2cc(NC(=O)[C@@H]3CNC(=O)C3)nn2-c2cccc(OC(F)(F)F)c2)c1 [Example 400] |  | 15 nM |  |
| CCCc1cccc(-c2cc(NC(=O)C3CNC(=O)C3)nn2C(C)(C)C)c1 (racemic) [Example 42] | 190 nM |  |  |
| O=C1C[C@@H](C(=O)Nc2cc(-c3cccc(OC(F)(F)F)c3)n(-c3cccc(Cl)c3)n2)CN1 [Example 106] | 6.8 nM |  |  |
| CCCn1nc(NC(=O)C2CNC(=O)C2)cc1-c1ccccc1 (racemic) [Example 12] | 4400 nM |  |  |
| CCCNC(=O)c1cccc(-c2cc(NC(=O)[C@@H]3CNC(=O)C3)nn2-c2ccccc2)c1 [Example 429] |  |  | inhibition at 0.1 µM: 40% |
| CCCc1cccc(-c2cc(NC(=O)[C@@H]3CNC(=O)N3CC(=O)O)nn2-c2ccccc2)c1 [Example 347] |  |  | inhibition at 0.3 µM: 11% |
| CCC(F)(F)c1cccc(-c2cc(NC(=O)[C@H]3CNC(=O)[C@@H]3C)nn2-c2cccc(F)c2)c1 [Example 170] | 3 nM |  |  |
| CCC(F)(F)c1cccc(-c2cc(NC(=O)[C@H]3CNC(=O)C3)nn2C2CCOCC2)c1 [Example 155] | 19 nM |  |  |
| CC(C)Oc1cccc(-n2nc(NC(=O)[C@@H]3CNC(=O)C3)cc2-c2cccc(OC(F)(F)F)c2)c1F [Example 478] |  | 36 nM |  |
| CCCc1cc(-c2cc(NC(=O)[C@H]3CNC(=O)C3)nn2-c2ccccc2)ccc1OCC(=O)O [Example 122] |  |  | inhibition at 1 µM (CHO-K1, at 1 uM): 9% |
| CCCN(C)C(=O)c1cccc(-c2cc(NC(=O)[C@@H]3CNC(=O)C3)nn2-c2ccccc2)c1 [Example 430] |  |  | inhibition at 0.1 µM: 8% |
| COCCOc1cccc(-n2nc(NC(=O)[C@@H]3CNC(=O)C3)cc2-c2cccc(CO[C@H](C)C(F)(F)F)c2)c1 [Example 455] |  | 3.1 nM |  |
| C[C@@H](OCc1cc(F)cc(-c2cc(NC(=O)[C@@H]3CNC(=O)C3)nn2-c2cccc(F)c2)c1)C(F)(F)F [Example 521] |  | 5.15 nM |  |
| C[C@H]1C(=O)NC[C@@H]1C(=O)Nc1cc(-c2cccc(CO[C@H](C)C(F)(F)F)c2)n(-c2ccccc2)n1 [Example 563] |  |  | inhibition at 0.00265 µM (CHO-K1, at 0.00265 uM): 57% |
| CCC(C)(C)Oc1cccc(-c2cc(NC(=O)[C@@H]3CNC(=O)C3)nn2-c2ccccc2)c1 [Example 291] |  | 5.1 nM |  |

| SMILES | IC50 [1] | IC50 [2] | also measured |
| --- | --- | --- | --- |
| CC(C)COCc1cccc(-c2cc(NC(=O)[C@@H]3CNC(=O)C3)nn2-c2ccccc2)c1 [Example 314] |  | 15 nM |  |
| CC(C)S(=O)(=O)Cc1cccc(-c2cc(NC(=O)[C@@H]3CNC(=O)C3)nn2-c2ccccc2)c1 [Example 566] |  |  | inhibition at 0.3 µM: 22% |
| CC(C)(OCc1cc(F)cc(-c2cc(NC(=O)[C@H]3CNC(=O)N3)nn2-c2ccc(F)cc2)c1)C(F)(F)F [Example 602] |  | 28 nM |  |
| O=C1C[C@@H](C(=O)Nc2cc(-c3cccc(OC(F)(F)F)c3)n(CCC3CCCCC3)n2)CN1 [Example 128] | 17 nM |  |  |
| O=C1C[C@@H](C(=O)Nc2cc(-c3cccc(OC(F)(F)F)c3)n(-c3ccccc3Cl)n2)CN1 [Example 130] | 1.3 nM |  |  |
| CCC(F)(F)c1cccc(-c2cc(NC(=O)[C@@H]3CNC(=O)C3)nn2-c2ccccc2)c1 [Example 73] | 13 nM |  |  |
| O=C1C[C@H](C(=O)Nc2cc(-c3cc(F)cc(COCC(F)(F)F)c3)n(-c3cccc(Cl)c3)n2)CN1 [Example 511] |  | 7.9 nM |  |
| Cc1ccccc1-n1nc(NC(=O)[C@H]2CNC(=O)C2)cc1-c1cccc(OC(F)(F)F)c1 [Example 156] | 2.7 nM |  |  |
| O=C1C[C@H](C(=O)Nc2cc(-c3cccc(CO[C@@H]4CCOC4)c3)n(-c3ccccc3)n2)CN1 [Example 536] |  |  | inhibition at 0.1 µM: 15% |
| CCN1C(=O)NC[C@H]1C(=O)Nc1cc(-c2cccc(OC(F)(F)F)c2)n(-c2ccccc2)n1 [Example 296] |  |  | inhibition at 0.1 µM: 48% |
| O=C1NC[C@H](C(=O)Nc2cc(-c3cccc(COCCC(F)(F)F)c3)n(-c3ccccc3)n2)N1 [Example 354] |  | 79 nM |  |
| O=C1C[C@H](C(=O)Nc2cc(-c3cccc(COC(C(F)(F)F)C(F)(F)F)c3)n(-c3ccc(F)cc3)n2)CN1 [Example 409] |  | 12 nM |  |
| CCCc1cccc(-c2cc(NC(=O)[C@@H]3CNC(=O)C3)nn2CCc2ccccc2)c1 [Example 108] |  |  | inhibition at 0.1 µM: 45% |
| CCCOc1cccc(-c2cc(NC(=O)[C@@H]3CNC(=O)C3)nn2-c2ccccc2)c1 [Example 284] |  | 75 nM |  |
| Cc1ccc(-n2nc(NC(=O)[C@H]3CNC(=O)[C@@H]3C)cc2-c2cccc(OC(F)(F)F)c2)cc1 [Example 234] | 7.4 nM |  |  |
| O=C1C[C@H](C(=O)Nc2cc(-c3cccc(C(=O)NCC(F)(F)F)c3)n(-c3ccccc3)n2)CN1 [Example 433] |  |  | inhibition at 0.1 µM: 8% |
| C[C@@H](OCc1cccc(-c2cc(NC(=O)[C@@H]3CNC(=O)C3)nn2-c2ccc(Cl)cc2)c1)C(F)(F)F [Example 244, (S)-5-oxopyrrolidine-3-carboxylic acid{1-(4-chlorophenyl)-5-[3-((R)-2,2,2-trifluoro-1-methylethoxymethyl)phenyl]-1H-pyrazol-3-yl}amide] |  | 8 nM |  |
| CCCc1cccc(-c2cc(NC(=O)C3CC(=O)NC3C)nn2-c2ccccc2)c1 (single isomer, unassigned) [Example 19] | 33 nM |  |  |
| C[C@H]1C(=O)NC[C@@H]1C(=O)Nc1cc(-c2cccc(OC(F)(F)F)c2)n(-c2ccc(F)cc2)n1 [Example 2, (3R,4R)-4-methyl-5-oxopyrrolidine-3-carboxylic acid[1-(4-fluorophenyl)-5-(3-(trifluoromethoxy)phenyl)-1H-pyrazol-3-yl]amide] | 3.4 nM |  |  |
| CCCc1cccc(-c2cc(NC(=O)[C@@H]3CNC(=O)C3)nn2-c2cccc(OCc3ccccc3)c2)c1 [Example 340] |  | 16 nM |  |
| Cc1cc(F)ccc1-n1nc(NC(=O)[C@H]2CNC(=O)[C@@H]2C)cc1-c1cccc(OC(F)(F)F)c1 [Example 196] | 4.8 nM |  |  |
| COC(C)(C)c1cccc(-c2cc(NC(=O)C3CNC(=O)NC3)nn2-c2ccccc2)c1 [Example 271] |  | 290 nM |  |
| O=C1C[C@H](C(=O)Nc2cc(-c3cccc(COC4COC4)c3)n(-c3ccccc3)n2)CN1 [Example 542] |  |  | inhibition at 0.1 µM: 18% |

Second part, led by results:

| IC50 [1] | IC50 [2] | SMILES | also measured |
| --- | --- | --- | --- |
| 9.2 nM |  | CCC(F)(F)c1cccc(-c2cc(NC(=O)[C@H]3CNC(=O)C3)nn2CCC(C)C)c1 [Example 142] |  |
|  | 2.1 nM | CCOc1ccc(F)c(-n2nc(NC(=O)[C@@H]3CNC(=O)C3)cc2-c2cccc(COCC(F)(F)F)c2)c1 [Example 460] |  |
|  | 13 nM | CCCc1cccc(-c2cc(NC(=O)[C@@H]3CNC(=O)C3)nn2-c2ccc(C(C)C)cc2)c1 [Example 363] |  |
| 33 nM |  | CCCc1cccc(-c2cc(NC(=O)C3COC(=O)C3)nn2-c2ccccc2)c1 (racemic) [Example 7, 5-oxotetrahydrofuran-3-carboxylic acid[1-phenyl-5-(3-propylphenyl)-1H-pyrazol-3-yl]amide] |  |
| 22 nM |  | CC(F)(F)c1cccc(-c2cc(NC(=O)[C@H]3CNC(=O)C3)nn2-c2ccccc2)c1 [Example 161] |  |
|  | 17.5 nM | O=C1C[C@H](C(=O)Nc2cc(-c3cccc(COCC(F)(F)F)c3)n(-c3ccccc3)n2)CN1 [Example 279] |  |
| 0.7 nM |  | C[C@H]1C(=O)NC[C@@H]1C(=O)Nc1cc(-c2cccc(C(C)(C)C)c2)n(-c2ccccc2Cl)n1 [Example 194] |  |
| 12 nM |  | COC(C)(C)c1cccc(-c2cc(NC(=O)[C@H]3CNC(=O)C3)nn2-c2ccccc2)c1 [Example 82] |  |
|  | 4.7 nM | CCCc1cccc(-c2cc(NC(=O)[C@@H]3CNC(=O)C3)nn2-c2cc(C)cc(C)c2)c1 [Example 322] |  |
|  | 3.8 nM | CC(C)Oc1ccc(F)c(-n2nc(NC(=O)[C@@H]3CNC(=O)C3)cc2-c2cccc(OC(F)(F)F)c2)c1 [Example 517] |  |
|  | 3.85 nM | C[C@@H](OCc1cc(F)cc(-c2cc(NC(=O)[C@@H]3CNC(=O)C3)nn2-c2ccccc2F)c1)C(F)(F)F [Example 237, (S)-5-oxopyrrolidine-3-carboxylic acid{1-(2-fluorophenyl)-5-[3-fluoro-5-((R)-2,2,2-trifluoro-1-methylethoxymethyl)phenyl]-1H-pyrazol-3-yl}amide] |  |
| 3.9 nM |  | CCCc1cc(F)cc(-c2cc(NC(=O)[C@@H]3CNC(=O)C3)nn2-c2ccccc2)c1 [Example 75] |  |
|  | 14 nM | CCCOc1ccc(-n2nc(NC(=O)[C@@H]3CNC(=O)C3)cc2-c2cccc(CCC)c2)cc1 [Example 383] |  |
|  | 18 nM | O=C1C[C@H](C(=O)Nc2cc(-c3cc(F)cc(COCC(F)(F)F)c3)n(-c3cccc(F)c3)n2)CN1 [Example 520] |  |
|  | 5.35 nM | CCCc1cccc(-c2cc(NC(=O)[C@@H]3CNC(=O)C3)nn2-c2cccc(OC(=O)OC(C)(C)C)c2)c1 [Example 388] |  |
| 170 nM |  | CCCc1cccc(-c2cc(NC(=O)[C@H]3CNC(=O)C3)nn2-c2cccc(OCC(=O)O)c2)c1 [Example 124] |  |
